Laboratory results taken from patent publication EP4635949A1 (Jiangsu NHWA Pharmaceutical Co., Ltd, priority 2022, dated 2024).
Read-outs that look alike come from different tables or passages of the source.

Key:
OX1 receptor = target: T1, OX1 receptor (Homo sapiens, UniProt O43613); assay: Orexin target function test (Cisbio HTRF IP-one), CHO-K1-OX1 cells, antagonism of EC80 Orexin A; format: cell-based
T1 construct: host or cells: CHO-K1
T1 sequence (O43613 1-425): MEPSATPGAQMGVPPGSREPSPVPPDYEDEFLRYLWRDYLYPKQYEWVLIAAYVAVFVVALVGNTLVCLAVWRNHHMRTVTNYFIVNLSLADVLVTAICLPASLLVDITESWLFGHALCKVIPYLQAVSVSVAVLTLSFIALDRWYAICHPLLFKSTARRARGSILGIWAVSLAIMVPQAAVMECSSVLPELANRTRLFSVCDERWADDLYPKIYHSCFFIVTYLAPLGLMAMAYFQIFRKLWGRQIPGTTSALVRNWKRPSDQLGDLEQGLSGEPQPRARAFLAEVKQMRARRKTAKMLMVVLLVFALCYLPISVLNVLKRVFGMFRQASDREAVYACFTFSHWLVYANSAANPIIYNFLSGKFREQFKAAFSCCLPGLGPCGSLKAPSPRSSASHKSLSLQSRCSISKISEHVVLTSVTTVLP
Method: (§1) Using Cisbio HTRF IP-one kit to detect the changes in IP-one concentration of orexin receptor (OX1/OX2) signaling pathway by microplate reader, and calculating the IC50 value of the compound to evaluate the antagonistic effect of the compound on OX1 and OX2 receptors.
(§2) The cells were centrifuged at 1000 rpm for 5 minutes and the supernatant was discarded. 3 mL of PBS was added, and gently blown with a pipette to mix. After centrifugation at 1000 rpm for 5 minutes again, the supernatant was discarded. […] Based on the antagonistic effect values of the compound samples at different concentrations, the GraphPad Prism software was used to fit the orexin receptor antagonism curve of the compound samples and calculate the IC50.

OX2 receptor = target: T2, OX2 receptor (Homo sapiens, UniProt O43614); assay: Orexin target function test (Cisbio HTRF IP-one), CHO-K1-OX2 cells, antagonism of EC80 Orexin 2 receptor agonist; format: cell-based
T2 construct: host or cells: CHO-K1
T2 sequence (O43614 1-444): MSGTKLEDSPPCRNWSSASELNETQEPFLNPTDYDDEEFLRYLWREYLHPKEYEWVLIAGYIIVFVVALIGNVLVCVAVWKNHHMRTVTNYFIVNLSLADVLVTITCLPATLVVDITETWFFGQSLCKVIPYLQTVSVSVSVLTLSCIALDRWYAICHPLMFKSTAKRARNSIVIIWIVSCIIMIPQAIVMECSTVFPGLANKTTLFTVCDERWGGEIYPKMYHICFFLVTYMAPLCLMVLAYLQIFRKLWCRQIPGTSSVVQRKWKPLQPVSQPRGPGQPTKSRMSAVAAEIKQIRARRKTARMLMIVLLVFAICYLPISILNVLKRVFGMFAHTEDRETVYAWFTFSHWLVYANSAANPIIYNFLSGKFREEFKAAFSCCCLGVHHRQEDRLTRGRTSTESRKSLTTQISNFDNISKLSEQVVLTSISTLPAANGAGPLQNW
Method: as §1, §2

in vivo = settings: male, SD, rat, plasma
[1] = CHO-K1-OX1 cells, IP-one, read-out: hOXIR IC50
[2] = CHO-K1-OX2 cells, IP-one, read-out: hOX2R IC50
[3] = ratio of OX1R IC50 to OX2R IC50

Compound COc1ccc(C(=O)N2C[C@H]3CC(c4nc(Cl)cnc4OC)=C[C@H]3C2)c(-n2nccn2)c1 (relative stereo) [Compound 54] has an IC50 (OX1 receptor; [1]) of 2600 nM, an IC50 (OX2 receptor; [2]) of 22 nM and a Selectivity (OX2 receptor; [3]) of 118.
CCc1c(C)nc(C2=CC3CN(C(=O)c4c(F)cccc4-n4nccn4)CC3C2)nc1C (centres unmarked) [Compound 11, (5-(5-ethyl-4,6-dimethylpyrimidin-2-yl)-3,3a,4,6a-tetrahydrocyclopenta[c]pyrrol-2(1H)-yl)(2-fluoro-6-(2H-1,2,3-triazol-2-yl)phenyl)methanone] showed an IC50 (OX1 receptor; [1]) of 1950 nM, an IC50 (OX2 receptor; [2]) of 27 nM and a Selectivity (OX2 receptor; [3]) of 72.
In the case of Cc1nc(C2=CC3CN(C(=O)c4c(F)cccc4-n4nccn4)CC3C2)nc2c1CCCC2 (centres unmarked) [Compound 14, (2-fluoro-6-(2H-1,2,3-triazol-2-yl)phenyl)(5-(4-methyl-5,6,7,8-tetrahydroquinazolin-2-yl)-3,3a, 4,6a-tetrahydrocyclopenta[c]pyrrol-2(1H)-yl)methanone], the IC50 (OX1 receptor; [1]) is reported as 2750 nM, the IC50 (OX2 receptor; [2]) is reported as 24 nM and the Selectivity (OX2 receptor; [3]) is reported as 114.
Cc1nc(C2=CC3CN(C(=O)c4c(F)cccc4-n4nccn4)CC3C2)nc2c1COCC2 (centres unmarked) [Compound 16, (2-fluoro-6-(2H-1,2,3-triazol-2-yl)phenyl)(5-(4-methyl-7,8-dihydro-5H-pyrano[4,3-d]pyrimidin-2-yl)-3,3a,4,6a-tetrahydrocyclopenta[c]pyrrol-2(1H)-yl)methanone] showed an IC50 (OX1 receptor; [1]) of 1880 nM, an IC50 (OX2 receptor; [2]) of 20 nM and a Selectivity (OX2 receptor; [3]) of 94.
Work on Cc1nc(C2=CC3CN(C(=O)c4c(F)cccc4-n4nccn4)CC3C2)nc2c1CCC2 (centres unmarked) [Compound 17, (2-fluoro-6-(2H-1,2,3-triazol-2-yl)phenyl)(5-(4-methyl-6,7-dihydro-5H-cyclopenta[d]pyrimidin-2-yl)-3,3a,4,6a-tetrahydrocyclopenta[c]pyrrol-2(1H)-yl)methanone] yielded an IC50 (OX1 receptor) of 2880 nM, an IC50 (OX2 receptor) of 22 nM and a Selectivity (OX2 receptor; [3]) of 131.
Cc1nc(C2=CC3CN(C(=O)c4c(F)cccc4-n4nccn4)CC3C2)nc2ccoc12 (centres unmarked) [Compound 18, (2-fluoro-6-(2H-1,2,3-triazol-2-yl)phenyl)(5-(4-methylfuro[3,2-d]pyrimidin-2-yl)-3,3a,4,6a-tetrahydrocyclopenta[c]pyrrol-2(1H)-yl)methanone] gave an IC50 (OX1 receptor) of 2310 nM, an IC50 (OX2 receptor) of 23.4 nM and a Selectivity (OX2 receptor; [3]) of 99.
Cc1nc(C2=CC3CN(C(=O)c4c(F)cccc4-n4nccn4)CC3C2)nc2c1OCC2 (centres unmarked) [Compound 19, (2-fluoro-6-(2H-1,2,3-triazol-2-yl)phenyl)(5-(4-methyl-6,7-dihydrofuro[3,2-d]pyrimidin-2-yl)-3,3a,4,6a-tetrahydrocyclopenta[c]pyrrol-2(1H)-yl)methanone] showed an IC50 (OX1 receptor; [1]) of 2480 nM, an IC50 (OX2 receptor; [2]) of 18 nM and a Selectivity (OX2 receptor; [3]) of 138.
For COc1nc(C2=CC3CN(C(=O)c4ccccc4-n4nccn4)CC3C2)nc(C)c1F (centres unmarked) [Compound 27, (2-(2H-1,2,3-triazol-2-yl)phenyl)(5-(5-fluoro-4-methoxy-6-methylpyrimidin-2-yl)-3,3a,4,6a-tetrahydrocyclopenta[c]pyrrol-2(1H)-yl)methanone], the IC50 (OX1 receptor; [1]) was 1680 nM, the IC50 (OX2 receptor; [2]) was 20 nM and the Selectivity (OX2 receptor; [3]) was 84.
Cc1nc(C2=CC3CN(C(=O)c4c(F)cccc4-c4cc[nH]n4)CC3C2)nc(C)c1F (centres unmarked) [Compound 29, (5-(5-fluoro-4,6-dimethylpyrimidin-2-yl)-3,3a,4,6a-tetrahydrocyclopenta[c]pyrrol-2(1H)-yl)(2-fluoro-6-(1H-pyrazol-3-yl)phenyl)methanone] showed an IC50 (OX1 receptor; [1]) of 1280 nM, an IC50 (OX2 receptor; [2]) of 20 nM and a Selectivity (OX2 receptor; [3]) of 64.
In the case of [2H]C([2H])([2H])c1nc(C2=CC3CN(C(=O)c4ccc(F)cc4-n4nccn4)CC3C2)nc(C([2H])([2H])[2H])c1F (centres unmarked) [Compound 30, (4-fluoro-2-(2H-1,2,3-triazol-2-yl)phenyl)(5-(5-fluoro-4,6-bis(methyl-d3)pyrimidin-2-yl)-3,3a,4,6a-tetrahydrocyclopenta[c]pyrrol-2(1H)-yl)methanone], the IC50 (OX1 receptor) is reported as 3920 nM, the IC50 (OX2 receptor) is reported as 21 nM and the Selectivity (OX2 receptor; [3]) is reported as 186.
[2H]C([2H])([2H])Oc1cc(-n2nccn2)c(C(=O)N2CC3C=C(c4nc(C)c(F)c(C)n4)CC3C2)cn1 (centres unmarked) [Compound 34, (5-(5-fluoro-4,6-dimethylpyrimidin-2-yl)-3,3a,4,6a-tetrahydrocyclopenta[c]pyrrol-2(1H)-yl)(6-(methoxy-d3)-4-(2H-1,2,3-triazol-2-yl)pyridin-3-yl)methanone] showed an IC50 (OX1 receptor) of 5000 nM, an IC50 (OX2 receptor) of 24 nM and a Selectivity (OX2 receptor) of 208.
For [2H]C([2H])([2H])Oc1ccc(C(=O)N2CC3C=C(c4nc(C)c(F)c(C)n4)CC3C2)c(-n2nccn2)c1 (centres unmarked) [Compound 36, (5-(5-fluoro-4,6-dimethylpyrimidin-2-yl)-3,3a,4,6a-tetrahydrocyclopenta[c]pyrrol-2(1H)-yl)(4-(methoxy-d3)-2-(2H-1,2,3-triazol-2-yl)phenyl)methanone], the IC50 (OX1 receptor) was 3100 nM, the IC50 (OX2 receptor) was 18 nM and the Selectivity (OX2 receptor) was 172.
In the case of Cc1nc(C2=CC3CN(C(=O)c4c(F)cccc4-n4nccn4)CC3C2)nc(C(C)(C)O)c1F (centres unmarked) [Compound 37, (5-(5-fluoro-4-(2-hydroxypropan-2-yl)-6-methylpyrimidin-2-yl)-3,3a,4,6a-tetrahydrocyclopenta[c]pyrrol-2(1H)-yl)(2-fluoro-6-(2H-1,2,3-triazol-2-yl)phenyl)methanone], the AUC(0-t) (in vivo; iv, 1 mg/kg) is reported as 626 ng·h/mL, the Cmax (in vivo; iv, 1 mg/kg) is reported as 980 ng/mL and the AUC(0-t) (in vivo; po, 30 mg/kg) is reported as 16800 ng·h/mL. It also gave a Cmax (in vivo; po, 30 mg/kg) of 9240 ng/mL and a bioavailability (in vivo; po, 30 mg/kg) of 89.3%.
In the case of Cc1nc(C2=CC3CN(C(=O)c4c(F)cccc4-n4nccn4)CC3C2)nc(C)c1CF (centres unmarked) [Compound 38, (2-fluoro-6-(2H-1,2,3-triazol-2-yl)phenyl)(5-(5-(fluoromethyl)-4,6-dimethylpyrimidin-2-yl)-3,3a,4,6a-tetrahydrocyclopenta[c]pyrrol-2(1H)-yl)methanone], the IC50 (OX1 receptor; [1]) is reported as 1800 nM, the IC50 (OX2 receptor; [2]) is reported as 22 nM and the Selectivity (OX2 receptor; [3]) is reported as 82.
Compound COc1ncc(C)nc1C1=CC2CN(C(=O)c3c(F)cccc3-c3ncccn3)CC2C1 (centres unmarked) [Compound 43, (2-fluoro-6-(pyrimidin-2-yl)phenyl)(5-(3-methoxy-6-methylpyrazin-2-yl)-3,3a,4,6a-tetrahydrocyclopenta[c]pyrrol-2(1H)-yl)methanone] has an IC50 (OX1 receptor; [1]) of 2100 nM, an IC50 (OX2 receptor; [2]) of 28 nM and a Selectivity (OX2 receptor; [3]) of 75.
With COc1cnc(OC)c(C2=CC3CN(C(=O)c4ccc(F)cc4-n4nccn4)CC3C2)n1 (centres unmarked) [Compound 50, [5-(3,6-dimethoxypyrazin-2-yl)-3,3a,4,6a-tetrahydrocyclopenta[c]pyrrol-2(1H)-yl][4-fluoro-2-(2H-1,2,3-triazol-2-yl)phenyl]methanone] the IC50 (OX1 receptor) was 3610 nM, the IC50 (OX2 receptor) was 27 nM and the Selectivity (OX2 receptor; [3]) was 134.
Work on COc1ccc(C(=O)N2CC3C=C(c4nc(OC)cnc4OC)CC3C2)c(-n2nccn2)c1 (centres unmarked) [Compound 53, [5-(3,6-dimethoxypyrazin-2-yl)-3,3a,4,6a-tetrahydrocyclopenta[c]pyrrol-2(1H)-yl][4-methoxy-2-(2H-1,2,3-triazol-2-yl)phenyl]methanone] yielded an IC50 (OX1 receptor; [1]) of 2860 nM, an IC50 (OX2 receptor; [2]) of 32 nM and a Selectivity (OX2 receptor; [3]) of 89.
For COc1ncc(C2CC2)nc1C1=CC2CN(C(=O)c3ccc(F)cc3-n3nccn3)CC2C1 (centres unmarked) [Compound 55, [5-(6-cyclopropyl-3-methoxypyrazin-2-yl)-3,3a,4,6a-tetrahydrocyclopenta[c]pyrrol-2(1H)-yl][4-fluoro-2-(2H-1,2,3-triazol-2-yl)phenyl]methanone], the IC50 (OX1 receptor) was 1900 nM, the IC50 (OX2 receptor) was 28 nM and the Selectivity (OX2 receptor; [3]) was 67.
With [2H]C([2H])([2H])c1cnc(OC)c(C2=CC3CN(C(=O)c4ccc(OC)cc4-n4nccn4)CC3C2)n1 (centres unmarked) [Compound 56, [4-methoxy-2-(2H-1,2,3-triazol-2-yl)phenyl][5-[3-methoxy-6-(methyl-d3)pyrazin-2-yl]-3,3a,4,6a-tetrahydrocyclopentyl[c]pyrrol-2(1H)-yl]methanone] the IC50 (OX1 receptor; [1]) was 2300 nM, the IC50 (OX2 receptor; [2]) was 16 nM and the Selectivity (OX2 receptor; [3]) was 144.
[2H]C([2H])([2H])Oc1ccc(C(=O)N2CC3C=C(c4nc(C)cnc4OC)CC3C2)c(-n2nccn2)c1 (centres unmarked) [Compound 57, [5-(3-methoxy-6-methylpyrazin-2-yl)-3,3a,4,6a-tetrahydrocyclopenta[c]pyrrol-2(1H)-yl][4-(methoxy-d3)-2-(2H-1,2,3-triazol-2-yl)phenyl]methanone] showed an IC50 (OX1 receptor; [1]) of 3160 nM, an IC50 (OX2 receptor; [2]) of 18 nM and a Selectivity (OX2 receptor; [3]) of 176.
